ChEMBL document CHEMBL4665764, “Synthesis and Biological Evaluation of Celastrol Derivatives as Potential Immunosuppressive Agents” (J Nat Prod, 2020)

Legend:
[1] = Selectivity index, ratio of CC50 for cytotoxicity against BALB/c mouse T cell to IC50 for antiproliferative activity against Con A-induced BALB/c mouse T cell; parameters: species or system T cell line
[2] = Cytotoxicity against BALB/c mouse T cell assessed as reduction in cell viability after 48 hrs by CCK8 assay; type: tissue-based, T cell line; settings: BALB/c mouse T cells
[3] = Antiproliferative activity against Con A-induced BALB/c mouse T cell after 48 hrs by CCK8 assay; type: functional, tissue-based, T cell line

| SMILES | Ratio CC50/IC50 [1] | CC50 at 48 h [2] [µM] | IC50 [3] [µM] |
| --- | --- | --- | --- |
| COCCCOC(=O)[C@]1(C)CC[C@]2(C)CC[C@]3(C)C4=CC=C5C(=CC(=O)C(O)=C5C)[C@]4(C)CC[C@@]3(C)[C@@H]2C1 | 1.7 | 1.7 | 0.994 |
| C#CCNC(=O)[C@]1(C)CC[C@]2(C)CC[C@]3(C)C4=CC=C5C(=CC(=O)C(O)=C5C)[C@]4(C)CC[C@@]3(C)[C@@H]2C1 | 16.4 | 1.4 | 0.112 |
| COCCOC(=O)[C@]1(C)CC[C@]2(C)CC[C@]3(C)C4=CC=C5C(=CC(=O)C(O)=C5C)[C@]4(C)CC[C@@]3(C)[C@@H]2C1 | 2.8 | 1.3 | 0.454 |
| CC1=C(O)C(=O)C=C2C1=CC=C1[C@@]2(C)CC[C@@]2(C)[C@@H]3C[C@](C)(C(=O)OCCC(C)C)CC[C@]3(C)CC[C@]12C | 1.4 | 1.5 | 1.09 |
| CC1=C(O)C(=O)C=C2C1=CC=C1[C@@]2(C)CC[C@@]2(C)[C@@H]3C[C@](C)(C(=O)NCc4cccc(C)c4)CC[C@]3(C)CC[C@]12C | 3.4 | 1 | 0.294 |
| C#CCOC(=O)[C@]1(C)CC[C@]2(C)CC[C@]3(C)C4=C[C@@H](c5c[nH]c6ccc(Br)cc56)c5c(cc(OC(C)=O)c(OC(C)=O)c5C)[C@]4(C)CC[C@@]3(C)[C@@H]2C1 | – | ≥ 10 | ≥ 10 |
| C#CCOC(=O)[C@]1(C)CC[C@]2(C)CC[C@]3(C)C4=C[C@@H](c5c[nH]c6ccccc56)c5c(cc(OC(C)=O)c(OC(C)=O)c5C)[C@]4(C)CC[C@@]3(C)[C@@H]2C1 | – | ≥ 10 | ≥ 10 |
| CCNC(=O)[C@]1(C)CC[C@]2(C)CC[C@]3(C)C4=CC=C5C(=CC(=O)C(O)=C5C)[C@]4(C)CC[C@@]3(C)[C@@H]2C1 | 34.6 | 1.1 | 0.031 |
| COC(=O)[C@H](Cc1ccc(O)cc1)NC(=O)[C@]1(C)CC[C@]2(C)CC[C@]3(C)C4=CC=C5C(=CC(=O)C(O)=C5C)[C@]4(C)CC[C@@]3(C)[C@@H]2C1 | 6.9 | 1.4 | 0.205 |
| CC1=C(O)C(=O)C=C2C1=CC=C1[C@@]2(C)CC[C@@]2(C)[C@@H]3C[C@](C)(C(=O)OCc4ccc(F)cc4)CC[C@]3(C)CC[C@]12C | 1.4 | 2 | 1.46 |
| CC1=C(O)C(=O)C=C2C1=CC=C1[C@@]2(C)CC[C@@]2(C)[C@@H]3C[C@](C)(C(=O)OCCCl)CC[C@]3(C)CC[C@]12C | 1.4 | 1.1 | 0.771 |
| CC1=C(O)C(=O)C=C2C1=CC=C1[C@@]2(C)CC[C@@]2(C)[C@@H]3C[C@](C)(C(=O)OCc4ccccc4Br)CC[C@]3(C)CC[C@]12C | 1.1 | 1.8 | 1.55 |
| CC1=C(O)C(=O)C=C2C1=CC=C1[C@@]2(C)CC[C@@]2(C)[C@@H]3C[C@](C)(C(=O)OCc4ccc(C(F)(F)F)cc4)CC[C@]3(C)CC[C@]12C | 1.4 | 6.7 | 4.87 |
| CC1=C(O)C(=O)C=C2C1=CC=C1[C@@]2(C)CC[C@@]2(C)[C@@H]3C[C@](C)(C(=O)NCCN(C)C)CC[C@]3(C)CC[C@]12C | 5.5 | 1.2 | 0.225 |
| CCCCNC(=O)[C@]1(C)CC[C@]2(C)CC[C@]3(C)C4=CC=C5C(=CC(=O)C(O)=C5C)[C@]4(C)CC[C@@]3(C)[C@@H]2C1 | 19.3 | 1.2 | 0.063 |
| C=CCOC(=O)[C@]1(C)CC[C@]2(C)CC[C@]3(C)C4=CC=C5C(=CC(=O)C(O)=C5C)[C@]4(C)CC[C@@]3(C)[C@@H]2C1 | 1.1 | 1.3 | 1.18 |
| CCCCOC(=O)[C@]1(C)CC[C@]2(C)CC[C@]3(C)C4=CC=C5C(=CC(=O)C(O)=C5C)[C@]4(C)CC[C@@]3(C)[C@@H]2C1 | 1.2 | 0.9 | 0.739 |
| C#CCOC(=O)[C@]1(C)CC[C@]2(C)CC[C@]3(C)C4=C[C@@H](c5c[nH]c6ccc(F)cc56)c5c(cc(OC(C)=O)c(OC(C)=O)c5C)[C@]4(C)CC[C@@]3(C)[C@@H]2C1 | – | 5.6 | ≥ 10 |
| C#CCOC(=O)[C@]1(C)CC[C@]2(C)CC[C@]3(C)C4=C[C@@H](c5c[nH]c6ccc(C)cc56)c5c(cc(OC(C)=O)c(OC(C)=O)c5C)[C@]4(C)CC[C@@]3(C)[C@@H]2C1 | – | ≥ 10 | ≥ 10 |
| C#CCOC(=O)[C@]1(C)CC[C@]2(C)CC[C@]3(C)C4=C[C@@H](c5c[nH]c6cc(OC)ccc56)c5c(cc(OC(C)=O)c(OC(C)=O)c5C)[C@]4(C)CC[C@@]3(C)[C@@H]2C1 | – | 3 | ≥ 10 |
| CC1=C(O)C(=O)C=C2C1=CC=C1[C@@]2(C)CC[C@@]2(C)[C@@H]3C[C@](C)(C(=O)On4nnc5ccccc54)CC[C@]3(C)CC[C@]12C | 8.1 | 15.1 | 1.88 |
